# Measurements: patent publication US4939175A, “Use of N,N-dimethyl-1-[1-(4-chlorophenyl)cyclobutyl]-3-methylbutylamine” (priority 1988, dated 1990)
# Like-named read-outs stand apart in the source and are kept apart here.
# How the values were obtained:
# [1] = test system: circling behavior in rats with unilateral substantia nigra lesions; test: Circling behavior in rats with unilateral substantia nigra lesions; assay type: in vivo, Std: Wistar male rats; details: 2 hours after, control 0.1 ± 0.4, **p < 0.01
# Method: Effect of the test samples on circling behavior in rats with unilateral substantia nigra lesions
# Std: Wistar male rats (8 heads/group) were used. The rat with unilateral substantia nigra lesions was made by injecting 8 μg/4 μl of 6-hydroxydopamine to the right side of substantia nigra.
# The test sample was administered orally to the rat. At 2 hours later, the number of circling behavior per 10 minutes was counted.
# Amantadine was used as the reference drug and distilled water was used as control sample.
# [2] = test system: inhibition of conditioned avoidance response induced by reserpine in rats; test: Inhibition of conditioned avoidance response induced by reserpine in rats; assay type: in vivo, Std-Wistar male rats
# Method: Effect of the test samples on the inhibition of conditioned avoidance response induced by reserpine in rats
# Std-Wistar male rats (8 to 9 week age) weighing of 270 to 300 g were fed under the conditions of 23±2° C., 60±10% R.H. and artificial lighting from 7 AM to 7 PM for a week, and then subjected to the test.
# The test was carried out by using a shuttle box. The shuttle box used herein was a rectangular box, which was equipped with a buzzer for conditioned stimulus at the upper part and grids of 2 mm in diameter, for non-conditioned stimulus, at intervals of 1 cm on the floor, and divided into two equal sized compartments by a hurdle of 5 cm in height.
# The schedule for inducing the conditioned avoidance response was controlled by a computer, and all the observed results of avoidance or escape response were recorded automatically.
# The avoidance condition was carried out as follows:
# After the conditioned stimulus of the buzzer with sound signal for 5 seconds, the non-conditioned stimulus of the foot shock was given for 5 seconds to rats. Each stimulus was stopped immediately, if the rat jumped over the hurdle to the other compartment during the conditioned or non-conditioned stimulus.
# The above-mentioned rats were put on the trials for 25 times. Then the rats were given reserpine (1 mg/kg, intraperitoneally). The rats were tested for 15 times at the time of 18 to 20 hours after the reserpine administration, and then they were divided into several groups ([…]).
# The test sample was dissolved in distilled water and administered orally to each group at 24 to 26 hours after the reserpine administration. For reference, distilled water as control sample, and amitriptyline and amantadine as test drugs were used.
# At one hour after the test sample administration, the rats were put on the trials for 25 times and the conditioned avoidance responce was compared between the control group (distilled water administration), the test compound-administered group and the test drug-administered groups.
# [3] = test system: sleeping time induced by thiopental; test: Sleeping time induced by thiopental; assay type: in vivo, Std: Wistar male rats; details: thiopental 40 mg/kg i.v., control 500.8 ± 12.0, **p < 0.01
# Method: Effect of the test samples on the sleeping time induced by thiopental
# The test sample was administered orally to Std: Wistar male rats, and at 60 minutes later, sodium thiopental (40 mg/kg) was injected intravenously.
# The duration of sleeping time was determined as the time period between the injection of thiopental and return of the righting reflex.
# Distilled water was used as control sample.
# [4] = test system: depletion of dopamine induced by MPTP in mice whole brain; test: animal or person; assay type: in vivo, SlC: ddy strain male mice; details: Mus musculus, po, 168 h, MPTP 50 mg/kg s.c., read-out: Percentage of the amount of dopamine in the treated group against the amount of dopamine in the non-treated group; for response vs control in vivo at 10 mg/kg: 10 mg/kg oral
# [5] = test system: depletion of serotonin induced by p-chloroamphetamine; test: Depletion of serotonin (5-HT) induced by p-chloroamphetamine (whole brain); assay type: in vivo, SlC:ddy mice; details: p-chloroamphetamine 10 mg/kg i.p., control 48 ± 6, **p < 0.01
# Method: Effect of the test samples on the depletion of serotonin (hereinafter referred to as "5-HT") induced by p-chloroamphetamine
# The test sample was administered orally to SlC:ddy made mice and after 60 minutes, p-chloroamphetamine (10 mg/kg) was injected intraperitoneally.
# At 6 hours later, the mice were decapitated. The whole brain was rapidly removed and homogenized in 0.06M perchloric acid with N-methylserotonin (10 μg/ml) as an internal standard. The homogenate was centrifuged and then the amount of 5-HT in the supernatant was determined by high performance liquid chromatography with electrochemical detection.
# Amitriptyline was used as the reference drug and distilled water was used as control sample.
# [6] = test system: re-uptake of ^3 H-dopamine; test: Re-uptake of 3H-dopamine in vitro (synaptosomes, P2 fraction of whole brain); assay type: biochemical, Std: Wistar strain male rat; details: Experiment I, rat brain synaptosomes, 37° C., 20 minutes
# Method: Effect of the test samples on the re-uptake of ^3 H-dopamine in vitro
# P2 fraction was prepared from the whole brain of Std: Wistar strain male rat. […] The obtained mixture was incubated at 37° C. for 20 minutes and then subjected to the suction filtration with Whatman GF/B filter paper.
# The obtained filter paper was put in a vial containing 10 ml of toluene type scintillator and its radioactivity was measured by means of liquid scintillation counter. The amount of the specific re-uptake of ^3 H-dopamine was obtained by subtracting the amount of re-uptake at 0° C. as blank.
# [7] = test system: depletion of norepinephrine induced by 6-hydroxydopamine in rat heart; test: Depletion of norepinephrine induced by 6-hydroxydopamine in rat heart; assay type: in vivo, Std: Wistar male rats; details: 6-hydroxydopamine 20 mg/kg i.p., control 20 ± 4, non-treatment 425 ± 49, **p < 0.01
# Method: Effect of the test samples on the depletion of norepinephrine induced by 6-hydroxydopamine in rat heart.
# The test sample was administered orally to Std: Wistar male rats and after 30 minutes, 6-hydroxydopamine (20 mg/kg) was injected intraperitoneally.
# At 16 hours after injection of 6-hydroxydopamine, the rats were killed. The whole heart was rapidly removed and homogenized in 0.05M perchloric acid with isoproterenol (10 mg/ml) as an internal standard. The homogenate was centrifuged and then the amount of norepinephrine in the supernatant was determined by means of high performance liquid chromatography with electrochemical detection.
# Desipramine was used as the reference drug and distilled water was used as control sample.
structure (smiles),measurement,setting,value
"CC(C)CC(N(C)C)C1(c2ccc(Cl)cc2)CCC1.Cl (stereo not shown) [Test compound, N,N-dimethyl-1-[1-(4-chlorophenyl)cyclobutyl]3-methylbutylamine hydrochloride]",Number of circling behavior per 10 min.,[1]; 3 mg/kg oral,3.0 ± 2.9 per 10 min.
same,Number of circling behavior per 10 min.,[1]; 10 mg/kg oral,5.1 ± 4.4 per 10 min.
same,Conditioned avoidance response 1 hour after administration of the test sample,"[2]; 10 mg/kg oral, reserpine 1 mg/kg, control 2",82%
same,Conditioned avoidance response before administration of reserpine,"[2]; baseline before test sample, 10 mg/kg group",90%
same,Conditioned avoidance response 18 to 20 hours after administration of reserpine,"[2]; reserpine 1 mg/kg i.p., before test sample, 10 mg/kg group",2%
same,Sleeping time,[3]; 10 mg/kg oral,345.6 ± 82.2 s
same,Sleeping time,[3]; 30 mg/kg oral,338.5 ± 43.7 s
same,response vs control in vivo at 10 mg/kg,"[4]; Experiment I, control 71 ± 11, *P < 0.05, **P < 0.01",83 ± 12%
same,response vs control in vivo at 30 mg/kg,"[4]; Experiment I, 30 mg/kg oral, control 71 ± 11, *P < 0.05, **P < 0.01",85 ± 6%
same,response vs control in vivo at 10 mg/kg,"[4]; Experiment II, control 88 ± 20, *P < 0.05",111 ± 8%
same,Percentages of the amount of 5-HT in the treated group against the amount of 5-HT in the non-treated group,[5]; 3 mg/kg oral,64 ± 8%
same,Percentages of the amount of 5-HT in the treated group against the amount of 5-HT in the non-treated group,[5]; 10 mg/kg oral,103 ± 10%
same,IC50,[6],2 µM
same,Amount of Norepinephrine,[7]; 0.625 mg/kg oral,169 ± 34 ng/g
same,Amount of Norepinephrine,[7]; 1.25 mg/kg oral,247 ± 49 ng/g
same,Amount of Norepinephrine,[7]; 2.5 mg/kg oral,306 ± 27 ng/g
